Laboratory results from patent US20170066759A1, “AROMATIC 5-MEMBERED HETEROCYCLIC DERIVATIVE HAVING TRPV4-INHIBITING ACTIVITY” (Shionogi & Co., Ltd., priority 2012, published 2017).

Legend:
[1] = target: T1, human TRPV4 (hTRPV4/CHO cells) (Homo sapiens, UniProt Q9HBA0); test: Test Example 4: TRPV4 inhibitory activity (Ki value), 4α-PDD stimulation, Fluo-3 calcium fluorescence (FDSS 3000); type: cell-based; conditions: Test Example 4, 4α-PDD stimulation, read-out: Test 4 Ki
T1 construct: expressed in transfected cells; host or cells: CHO-K1
Method: TRPV4 Inhibitory Activity (Ki Value)
(§1) For each compound, TRPV4 inhibitory activity was measured using cells.
(§2) (Method) The procedures of evaluating TRPV4 inhibitory activity of a compound are as follows.
(§3) (1) TRPV4 inhibitory activity was measured using CHO-K1 cells stably expressing human TRPV4 (hTRPV4/CHO cells).
(2) Cells were subcultured using the MEM-α medium (SIGMA M4526: 500 ml), FBS (HyCloneSH30070.03: 10%), L-Glutamine 200 mmol/L (GIBCO: 4 mmol/L), P/S (nacalai tesque: 1%), G418 (nacalai tesque: 1 mg/mL).
(3) The 96-well plates which hTRPV4/CHO cells were seeded at densities of 2×10^4 cells/well in the culture medium in the day before the experimental day, and cultured in a CO2 incubator in the presence of 5% CO2 at 37° C. for 24 hours was used as assay plates.
(4) Cells were washed with assay buffer (Hank's Balanced Salt Solution 9.8 g, 1 mol/L HEPES (pH7.5), 250 mmol/L probenecid).
(5) Fluo-3, fluorescent dye for Ca influx assay was added to each well, then the assay plate was incubated in a CO2 incubator in the presence of 5% CO2 at 37° C. for one hour (final conc.; 5 μmol/L Fluo-3).
(6) The assay plate was washed with the assay buffer, and the buffer was remained at 30 μL/well. Then the assay plate was incubated for 10 min at 37° C.
(7) 20 μL of diluted compound solution was added to each well of assay plate, and mixed with built-in Pipette and Mixer of the fluorescence analysis system FDSS 3000 (Hamamatsu Photonics).
(8) 50 μL of 4α-PDD solution (concluding 0.1% Pluronic F-127) was applied to each well of assay plate and mixed.
(9) The fluorescent intensity was measured by FDSS 3000 for 8 min from the point of time addition the compound solution, at Ex 480 nm, Em 540 nm wavelength.
TRPV4 inhibitory activity (Ki value) of a compound was calculated according to the following procedure.
(§4) (10) In the presence of the compound, the difference between maximal and minimal of fluorescent intensity value for 8 min from just before addition of 4α-PDD solution was calculated, and it was referred as Max-Min value. Max-Min value of the Ruthenium Red at 10 μM was defined as 100% inhibitory activity, Max-Min value in the absence of the compound was defined as 0% inhibitory activity. TRPV4 inhibitory activity of the compound was calculated by the following formula.
(§5) (1−(Max−Min value of the compound−100% inhibitory activity)/(0% inhibitory activity−100% inhibitory activity))×100
(11) By the following formula, inhibitory activity was calculated at 10 points with three fold serial dilution, in the final concentration of the compound from 10 μmol/L to 0.5 nmol/L. The IC50 value was calculated by dose-response curve.
100−[(fluorescent intensity in the presence of the compound−fluorescent intensity of back ground)/(total fluorescent intensity−fluorescent intensity of back ground)]×100
(12) In the presence of the compound, activity of 4α-PDD was measured at 9 points with three fold serial dilution from 20 μmol/L. Activity of 4α-PDD was calculated by the following formula.
(Max−Min value of the each 4α-PDD concentration−0% activity)/(100% activity−0% activity))×100
(13) Effective activity was calculated in 4α-PDD the above. The EC50 value was calculated by dose-response curve.
(14) The Ki value of a compound was calculated by the following formula.
Ki=IC50 value/1+([A]/EC50)
[A]: Concentration of agonist (nmol/L)

CYP1A2 = target: T2, CYP1A2 (Homo sapiens, UniProt P05177); test: Test Example 6: CYP inhibition test, 7-ethoxyresorufin O-deethylation (CYP1A2); type: in vitro ADME; conditions: pooled human hepatic microsome, 0.5 μmol/L ethoxyresorufin
T2 construct: enzyme, pooled human hepatic microsome 0.2 mg protein/mL; from tissue; host or cells: pooled human liver microsomes
T2 sequence (P05177 1-516): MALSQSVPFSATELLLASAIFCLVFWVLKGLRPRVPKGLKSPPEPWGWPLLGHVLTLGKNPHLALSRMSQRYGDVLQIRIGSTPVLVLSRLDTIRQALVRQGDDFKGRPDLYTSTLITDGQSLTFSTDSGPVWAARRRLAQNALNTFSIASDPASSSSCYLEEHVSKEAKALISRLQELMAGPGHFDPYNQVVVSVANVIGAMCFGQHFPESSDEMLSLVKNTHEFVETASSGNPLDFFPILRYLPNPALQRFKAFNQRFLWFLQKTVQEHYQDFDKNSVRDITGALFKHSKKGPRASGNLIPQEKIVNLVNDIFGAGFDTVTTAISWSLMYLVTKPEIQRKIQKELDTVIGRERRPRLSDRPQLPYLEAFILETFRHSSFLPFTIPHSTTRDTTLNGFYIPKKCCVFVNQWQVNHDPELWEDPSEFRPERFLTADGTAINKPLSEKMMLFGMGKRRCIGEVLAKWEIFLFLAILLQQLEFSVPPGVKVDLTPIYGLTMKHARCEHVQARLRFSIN
Method: (§6) Test Example 6 CYP Inhibition Test […] The reaction conditions were as follows: substrate, 0.5 μmol/L ethoxyresorufin (CYP1A2), 100 μmol/L tolbutamide (CYP2C9), 50 μmol/L S-mephenytoin (CYP2C19), 5 μmol/L dextromethorphan (CYP2D6), 1 μmol/L terfenedine (CYP3A4); reaction time, 15 minutes; reaction temperature, 37° C.; enzyme, pooled human hepatic microsome 0.2 mg protein/mL; concentration of the compound of the present invention, 1, 5, 10, 20 μmol/L (four points). Each five kinds of substrates, human hepatic microsome, and the compound of the present invention in 50 mmol/L Hepes buffer as a reaction solution were added to a 96-well plate at the composition as described above. NADPH, as a cofactor was added to initiate metabolism reactions as markers and, after the incubation at 37° C. for 15 minutes, a methanol/acetonitrile=1/1 (v/v) solution was added to stop the reaction. After the centrifugation at 3000 rpm for 15 minutes, resorufin (CYP1A2 metabolite) in the supernatant was quantified by a fluorescent multilabel counter and toltributamide hydroxide (CYP2[…] metabolite), mephenytoin 4' hydroxide (CYP2C19 metabolite), […], and terfenadine alcohol (CYP3A4 metabolite) were quantified by LC/MS/MS. Addition of only DMSO being a solvent dissolving the compound of the present invention to a reaction system was adopted as a control (100%). Remaining activity (%) was calculated at each concentration of the compound of the present invention added as the solution and IC50 was calculated by reverse presumption by a logistic model using a concentration and an inhibition rate.

CYP2C9 = target: T3, CYP2C9 (Homo sapiens, UniProt P11712); test: Test Example 6: CYP inhibition test, tolbutamide methyl-hydroxylation (CYP2C9); type: in vitro ADME; conditions: pooled human hepatic microsome, 100 μmol/L tolbutamide
T3 construct: enzyme, pooled human hepatic microsome 0.2 mg protein/mL; from tissue; host or cells: pooled human liver microsomes
Method: as §6

CYP2C19 = target: T4, CYP2C19 (Homo sapiens, UniProt P33261); test: Test Example 6: CYP inhibition test, mephenytoin 4′-hydroxylation (CYP2C19); type: in vitro ADME; conditions: pooled human hepatic microsome, 50 μmol/L S-mephenytoin
T4 construct: enzyme, pooled human hepatic microsome 0.2 mg protein/mL; from tissue; host or cells: pooled human liver microsomes
Method: as §6

CYP2D6 = target: T5, CYP2D6 (Homo sapiens, UniProt P10635); test: Test Example 6: CYP inhibition test, dextromethorphan O-demethylation (CYP2D6); type: in vitro ADME; conditions: pooled human hepatic microsome, 5 μmol/L dextromethorphan
T5 construct: enzyme, pooled human hepatic microsome 0.2 mg protein/mL; from tissue; host or cells: pooled human liver microsomes
Method: as §6

CYP3A4 = target: T6, CYP3A4 (Homo sapiens, UniProt P08684); test: Test Example 6: CYP inhibition test, terfenedine hydroxylation (CYP3A4); type: in vitro ADME; conditions: pooled human hepatic microsome, 1 μmol/L terfenedine
T6 construct: enzyme, pooled human hepatic microsome 0.2 mg protein/mL; from tissue; host or cells: pooled human liver microsomes
Method: as §6

[2] = target: T1, human TRPV4 (hTRPV4/CHO cells); test: Test Example 1: TRPV4 inhibitory activity (IC50 value), 4α-PDD stimulation, Fluo4 calcium fluorescence (FLIPR TETRA); type: cell-based; conditions: Test Example 1, 4α-PDD stimulation, read-out: Test 1 IC50
[3] = Test Example 8: Solubility test; type: physicochemical; conditions: fassgf or other biorelevant, kinetic from dmso stock; 1% DMSO addition, artificial intestinal juice pH 6.8, 16 hours at 25° C.
Method: The solubility of a compound of the present invention was determined under 1% DMSO addition conditions. A 10 mmol/L solution of the compound was prepared with DMSO, and 6 μL of the solution of the compound of the present invention was added to 594 μL of an artificial intestinal juice (water and 118 mL of 0.2 mol/L NaOH reagent were added to 250 mL of 0.2 mol/L potassium dihydrogen phosphate reagent to reach 1000 mL) with a pH of 6.8. The mixture was left standing for 16 hours at 25° C., and the mixture was vacuum-filtered. The filtrate was two-fold diluted with methanol/water=1/1 (V/V), and the compound concentration in the filtrate was measured with HPLC or LC/MS/MS by the absolute calibration method.

[4] = target: T1, human TRPV4 (hTRPV4/CHO cells); test: Test Example 2: TRPV4 inhibitory activity (IC50 value), 4α-PDD stimulation, Fluo3 calcium fluorescence (FLIPR); type: cell-based; conditions: Test Example 2, 4α-PDD stimulation, read-out: Test 2 IC50
Method: TRPV4 Inhibitory Activity (IC50 Value)
as §1, §2, §3
(2) In the day before the experimental day, frozen cell were thawed and washed with the culture medium (MEM-α, 10% FBS, 4 mmol/L L-Glutamine, 50 unit Penicillin, 50 μg/mL Streptomycin). Then cells were suspended in the culture medium.
(3) The 384-well plates which hTRPV4/CHO cells were seeded at densities of 4000 cells/well in the culture medium and cultured in a CO2 incubator in the presence of 5% CO2 at 37° C. for 24 hours was used as assay plates.
(4) The assay plate was washed with assay buffer (Hanks, 20 mmol/L HEPES, 2.5 mmol/L probenecid, pH7.4), and the buffer were remained at 20 μL/well.
(5) 10 μl of dye loading buffer (9 μmol/L Fluo 3-AM, 0.09% Pluronic F-127, 1% BSA/assay buffer) was added to each well, then the assay plate was incubated in a CO2 incubator in the presence of 5% CO2 at 37° C. for one hour. (final conc.; 3 μmol/L Fluo3-AM).
(6) The assay plate was washed with the assay buffer, and the buffers were remained at 20 μL/well. Then the assay plate was incubated for 10 min at room temperature.
(7) 20 μL of diluted compound solution was added to each well of assay plate, and mixed with built-in Pipette and Mixer of the Fluorescence analysis system FLIPR 384 (Molecular devices).
(8) After incubation for 4 min, 25 μL of 4α-PDD solution were applied to each well of assay plate and mixed with the FLIPR TETRA. (final conc.; 600 nmol/L 4α-PDD)
(9) The fluorescent intensity was measured with FLIPR TETRA system for 7 min from the point of time addition the compound solution, at Ex 488 nm, Em 510-570 nm wavelength.
TRPV4 inhibitory activity (IC50 value) of a compound was calculated according to the following procedure.
as §4, with “for 3” for “for 8”, “at 20” for “at 10”
as §5
(11) Inhibitory activity was calculated at 10 points with twice serial dilution, in the final concentration of the compound from 3.85 μg/mL to 7.5 ng/mL, the IC50 value (nmol/L) was calculated by logistic approximation method.

T1 sequence (Q9HBA0 whole entry): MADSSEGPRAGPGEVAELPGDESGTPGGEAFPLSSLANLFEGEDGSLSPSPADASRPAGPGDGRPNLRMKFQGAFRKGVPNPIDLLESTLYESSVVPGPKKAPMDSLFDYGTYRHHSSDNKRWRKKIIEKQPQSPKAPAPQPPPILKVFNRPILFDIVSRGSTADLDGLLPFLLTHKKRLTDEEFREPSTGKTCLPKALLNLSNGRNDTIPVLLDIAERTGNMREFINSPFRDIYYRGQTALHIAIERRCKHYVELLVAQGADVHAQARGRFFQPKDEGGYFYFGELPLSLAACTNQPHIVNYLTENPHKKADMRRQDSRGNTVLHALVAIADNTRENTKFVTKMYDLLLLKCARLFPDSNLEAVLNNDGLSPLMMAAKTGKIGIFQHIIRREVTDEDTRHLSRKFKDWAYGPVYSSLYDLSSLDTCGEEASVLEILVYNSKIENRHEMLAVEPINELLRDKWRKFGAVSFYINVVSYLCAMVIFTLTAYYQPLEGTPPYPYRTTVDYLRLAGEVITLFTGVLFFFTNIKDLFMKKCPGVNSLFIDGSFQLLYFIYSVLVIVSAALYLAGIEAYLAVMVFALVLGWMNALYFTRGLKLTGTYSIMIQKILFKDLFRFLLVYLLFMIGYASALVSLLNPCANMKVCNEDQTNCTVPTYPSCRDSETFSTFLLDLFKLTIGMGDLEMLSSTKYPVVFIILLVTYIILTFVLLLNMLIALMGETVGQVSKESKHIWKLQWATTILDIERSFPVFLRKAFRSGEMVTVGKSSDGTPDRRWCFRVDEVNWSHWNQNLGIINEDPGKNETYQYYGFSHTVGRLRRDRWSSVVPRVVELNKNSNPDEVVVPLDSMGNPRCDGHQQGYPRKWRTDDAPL
T6 sequence (P08684 whole entry): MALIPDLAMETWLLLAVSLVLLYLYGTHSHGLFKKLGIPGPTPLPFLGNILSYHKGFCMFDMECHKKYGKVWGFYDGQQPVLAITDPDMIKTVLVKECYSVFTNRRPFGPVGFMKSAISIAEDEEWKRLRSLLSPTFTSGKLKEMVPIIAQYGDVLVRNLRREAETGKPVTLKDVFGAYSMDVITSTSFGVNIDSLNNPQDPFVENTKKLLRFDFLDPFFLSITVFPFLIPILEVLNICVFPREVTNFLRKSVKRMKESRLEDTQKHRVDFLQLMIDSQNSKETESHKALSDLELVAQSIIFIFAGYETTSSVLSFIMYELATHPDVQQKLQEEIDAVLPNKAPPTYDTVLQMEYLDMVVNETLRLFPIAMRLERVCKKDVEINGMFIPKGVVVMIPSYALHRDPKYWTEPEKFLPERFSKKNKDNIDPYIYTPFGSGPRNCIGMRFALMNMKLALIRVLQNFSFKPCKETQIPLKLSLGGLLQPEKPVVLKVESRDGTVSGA
T3 sequence (P11712 whole entry): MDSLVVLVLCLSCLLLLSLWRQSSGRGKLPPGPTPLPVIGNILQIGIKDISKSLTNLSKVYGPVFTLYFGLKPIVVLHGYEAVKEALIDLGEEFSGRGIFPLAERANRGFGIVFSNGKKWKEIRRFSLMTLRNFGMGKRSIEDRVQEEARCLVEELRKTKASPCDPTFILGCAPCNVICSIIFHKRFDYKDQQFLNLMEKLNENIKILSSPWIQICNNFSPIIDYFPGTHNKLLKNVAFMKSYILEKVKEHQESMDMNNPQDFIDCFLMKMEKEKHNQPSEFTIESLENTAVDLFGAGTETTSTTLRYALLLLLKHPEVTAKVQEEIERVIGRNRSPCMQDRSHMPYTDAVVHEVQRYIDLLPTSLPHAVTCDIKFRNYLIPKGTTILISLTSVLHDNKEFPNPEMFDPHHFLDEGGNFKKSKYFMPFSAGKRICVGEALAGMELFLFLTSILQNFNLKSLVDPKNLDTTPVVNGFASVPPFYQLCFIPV
T4 sequence (P33261 whole entry): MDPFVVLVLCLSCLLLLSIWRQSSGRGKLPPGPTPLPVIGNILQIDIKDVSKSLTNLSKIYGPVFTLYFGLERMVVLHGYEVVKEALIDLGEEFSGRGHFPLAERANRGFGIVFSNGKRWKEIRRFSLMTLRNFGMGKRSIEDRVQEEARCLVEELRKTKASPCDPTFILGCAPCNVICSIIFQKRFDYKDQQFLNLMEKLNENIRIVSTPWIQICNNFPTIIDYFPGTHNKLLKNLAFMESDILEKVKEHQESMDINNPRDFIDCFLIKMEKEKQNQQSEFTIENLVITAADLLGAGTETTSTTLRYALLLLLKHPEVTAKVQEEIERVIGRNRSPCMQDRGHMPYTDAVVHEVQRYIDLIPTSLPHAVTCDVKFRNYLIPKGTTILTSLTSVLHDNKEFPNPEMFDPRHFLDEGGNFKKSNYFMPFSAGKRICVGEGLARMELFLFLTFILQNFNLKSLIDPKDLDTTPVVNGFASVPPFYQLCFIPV
T5 sequence (P10635 whole entry): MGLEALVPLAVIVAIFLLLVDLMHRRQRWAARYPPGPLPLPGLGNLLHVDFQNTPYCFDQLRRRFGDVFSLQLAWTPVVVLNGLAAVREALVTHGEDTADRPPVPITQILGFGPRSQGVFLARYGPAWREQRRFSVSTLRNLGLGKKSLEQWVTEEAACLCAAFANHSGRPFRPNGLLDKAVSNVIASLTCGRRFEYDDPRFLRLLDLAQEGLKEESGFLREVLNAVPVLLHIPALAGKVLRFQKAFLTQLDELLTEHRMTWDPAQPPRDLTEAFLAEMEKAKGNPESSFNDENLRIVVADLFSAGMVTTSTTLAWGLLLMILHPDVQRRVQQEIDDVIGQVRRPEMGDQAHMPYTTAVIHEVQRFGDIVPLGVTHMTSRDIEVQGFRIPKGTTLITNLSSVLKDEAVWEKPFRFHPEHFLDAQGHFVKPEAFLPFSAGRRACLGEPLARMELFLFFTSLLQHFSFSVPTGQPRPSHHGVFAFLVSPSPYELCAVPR

Cc1nc(C)c(-c2csc(NC(=O)[C@@H]3CCC(=O)N3)n2)s1 [Compound I-42]
Ki [1]: 1 to 3 µM
IC50 (CYP1A2): > 20 µM
IC50 (CYP2C9): > 20 µM
IC50 (CYP2C19): > 20 µM
IC50 (CYP2D6): > 20 µM
IC50 (CYP3A4): > 20 µM

Cc1nc(CN(C)C)sc1-c1csc(NC(=O)Cc2c(F)cccc2F)n1 [Compound I-81]
IC50 [2]: 1 to 8 µM
solubility at 16 h [3]: > 50 µM

Cc1nc(C)c(-c2csc(NC(=O)Cn3cc(Cl)cn3)n2)s1 [Compound I-116]
IC50 [2]: 1 to 8 µM
IC50 (CYP1A2): > 20 µM
IC50 (CYP2C9): > 20 µM
IC50 (CYP2C19): > 20 µM
IC50 (CYP2D6): > 20 µM
IC50 (CYP3A4): > 20 µM

N=C(N)Nc1ncc(-c2csc(NC(=O)c3ccccc3)n2)s1 [Compound I-187]
IC50 [4]: 1 to 8 µM

Cc1nc(C)c(-c2csc(NS(=O)(=O)Cc3ccccc3)n2)s1 [II-1]
Ki [1]: 1 to 3 µM
solubility at 16 h [3]: > 50 µM

c1ccc(Nc2nc(-c3cccs3)cs2)nc1 [II-9]
IC50 [4]: 1 to 8 µM

O=C(Nc1nc(-c2ccc(Cl)s2)cs1)c1cccc(C(F)(F)F)c1 [II-10]
IC50 [4]: 1 to 8 µM

O=C(Nc1nc(-c2ccc(Br)s2)cs1)c1cccc(F)c1 [II-11]
IC50 [4]: 1 to 8 µM

CC(C)(C)c1ccc(C(=O)Nc2nc(-c3ccc(Cl)s3)cs2)cc1 [II-12]
IC50 [4]: 1 to 8 µM

CC(=O)Nc1nc(-c2ccc(Br)s2)cs1 [II-13]
IC50 [4]: 1 to 8 µM
